Reference: article PMC2363616, “Mapping the HLA-A24-restricted T-cell epitope peptide from a tumour-associated antigen HER2 / neu: possible immunotherapy for colorectal carcinomas” (British Journal of Cancer, 2001)

System: CD8+ T cells of HLA-A24 healthy donors
Assay: Primary CTL induction with peptide-pulsed autologous DCs, cytotoxicity tested on peptide-pulsed TISI
Type: cell-based, human
Conditions: data not shown

CC(C)C[C@H](NC(=O)[C@H](CC(C)C)NC(=O)[C@H](C)NC(=O)[C@H](CC(C)C)NC(=O)[C@H](CC(C)C)NC(=O)[C@H](CC(C)C)NC(=O)CNC(=O)[C@H](Cc1c[nH]c2ccccc12)NC(=O)[C@@H](N)CCCNC(=N)N)C(=O)O [HE1]
CTL induction activity (cytotoxicity of peptide-stimulated CTLs against the peptide-pulsed TISI): showed the cytotoxicity against the peptide- pulsed TISI
